Laboratory results: patent publication US10745384B2, “Indazole derivatives as αv integrin antagonists” (BRISTOL-MYERS SQUIBB COMPANY, priority 2016, dated 2020)
Where a name gives a salt, the structure may show the parent alone.

How the values were obtained:
human αVβ3 = human αVβ3 (Homo sapiens, UniProt P05106+P06756); test: human αVβ3 HTRF binding assay
Experimental: (§1) All binding assays used the HTRF (homogeneous time resolved fluorescence) technology from Cisbio International, therefore all assays are described as HTRF binding assays. The assay results for the Examples are listed above together with the characterization data. The HTRF binding assays are established for the following integrins: human αVβ6, human αVβ1, human αVβ3, human αVβ5, and human αVβ8. All assays used the following assay buffer: 20 mM Tris, pH 7.4, 1 mM MgCl2, 1 mM MnCl2, 0.01% Tween 20, and 0.01% BSA. Alternatively, a SPA-based assay was used for evaluation of receptor binding.
(§2) The following describes the components and a representative procedure for the human αVβ6 HTRF binding assay: Recombinant human αVβ6 Integrin (R & D systems, 3817-AV) was biotinylated. Biotinylated human αVβ6 Integrin was added to assay vessel at a final concentration of 1.25 nM. FITC-conjugated fibronectin (Cytoskeleton, FNR02) was then added at the final concentration of 5 nM. The mixture was centrifuged at 600 rpm for three minutes using Thermo Fisher Heraeus Multifuge X3 centrifuge and then incubated at room temperature for an hour. Streptavidin Terbium (Cisbio international 610STLB) was then added at the final concentration of 0.625 nM. The resulting mixture was centrifuged at 600 rpm for three minutes using Thermo Fisher Heraeus Multifuge X3 centrifuge and then incubated at room temperature overnight in dark before reading HTRF signals. […]

human αVβ5 = human αVβ5 (Homo sapiens, UniProt P06756+P18084); test: human αVβ5 HTRF binding assay
Experimental: as §1, §2

human αVβ6 = biological target: T1, human αVβ6 (Homo sapiens, UniProt P06756+P18564); test: human αVβ6 HTRF binding assay; conditions: recombinant human αVβ6 integrin, FITC-conjugated fibronectin
T1 construct: purchased R & D systems 3817-AV
Method in brief: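 HTRF binding in 20 mM Tris pH 7.4 with 1 mM MgCl2, 1 mM MnCl2, 0.01% Tween 20 and 0.01% BSA. For αVβ6, biotinylated integrin (1.25 nM) and FITC-fibronectin (5 nM) were incubated 1 h at RT, then streptavidin-terbium (0.625 nM) was added overnight in the dark. An SPA-based fibronectin binding format was an alternative.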

human αVβ8 = human αVβ8 (Homo sapiens, UniProt P06756+P26012); test: human αVβ8 HTRF binding assay
Experimental: as §1, §2

human αVβ1 = human αVβ1 (Homo sapiens, UniProt P05556+P06756); test: human αVβ1 HTRF binding assay
Experimental: as §1
The following describes the components and a representative procedure for the human αVβ6 HTRF binding assay: Recombinant human αVβ6 Integrin (R & D systems, 3817-AV) was biotinylated. Biotinylated human αVβ6 Integrin was added to assay vessel at a final concentration of 1.25 nM. FITC-conjugated fibronectin (Cytoskeleton, FNR02) was then added at the final concentration of 5 nM. The mixture was centrifuged at 600 rpm for three minutes using Thermo Fisher Heraeus Multifuge X3 centrifuge and then incubated at room temperature for an hour. Streptavidin Terbium (Cisbio international 610STLB) was then added at the final concentration of 0.625 nM. The resulting mixture was centrifuged at 600 rpm for three minutes using Thermo Fisher Heraeus Multifuge X3 centrifuge and then incubated at room temperature overnight in dark before reading HTRF signals.
The SPA-based assay was carried out according to the protocol and procedures similar to the ones described in the following reference with appropriate modifications to agents and ligands which are readily understood by one skilled in the art: Pachter J A, Zhang R, Mayer-Ezell R., “Scintillation proximity assay to measure binding of soluble fibronectin to antibody-captured αVβ1 integrin” Anal Biochem. 1995 Sep. 1; 230(1):101-7.

human αVβ8, sequence (P06756 31-992 limits assumed): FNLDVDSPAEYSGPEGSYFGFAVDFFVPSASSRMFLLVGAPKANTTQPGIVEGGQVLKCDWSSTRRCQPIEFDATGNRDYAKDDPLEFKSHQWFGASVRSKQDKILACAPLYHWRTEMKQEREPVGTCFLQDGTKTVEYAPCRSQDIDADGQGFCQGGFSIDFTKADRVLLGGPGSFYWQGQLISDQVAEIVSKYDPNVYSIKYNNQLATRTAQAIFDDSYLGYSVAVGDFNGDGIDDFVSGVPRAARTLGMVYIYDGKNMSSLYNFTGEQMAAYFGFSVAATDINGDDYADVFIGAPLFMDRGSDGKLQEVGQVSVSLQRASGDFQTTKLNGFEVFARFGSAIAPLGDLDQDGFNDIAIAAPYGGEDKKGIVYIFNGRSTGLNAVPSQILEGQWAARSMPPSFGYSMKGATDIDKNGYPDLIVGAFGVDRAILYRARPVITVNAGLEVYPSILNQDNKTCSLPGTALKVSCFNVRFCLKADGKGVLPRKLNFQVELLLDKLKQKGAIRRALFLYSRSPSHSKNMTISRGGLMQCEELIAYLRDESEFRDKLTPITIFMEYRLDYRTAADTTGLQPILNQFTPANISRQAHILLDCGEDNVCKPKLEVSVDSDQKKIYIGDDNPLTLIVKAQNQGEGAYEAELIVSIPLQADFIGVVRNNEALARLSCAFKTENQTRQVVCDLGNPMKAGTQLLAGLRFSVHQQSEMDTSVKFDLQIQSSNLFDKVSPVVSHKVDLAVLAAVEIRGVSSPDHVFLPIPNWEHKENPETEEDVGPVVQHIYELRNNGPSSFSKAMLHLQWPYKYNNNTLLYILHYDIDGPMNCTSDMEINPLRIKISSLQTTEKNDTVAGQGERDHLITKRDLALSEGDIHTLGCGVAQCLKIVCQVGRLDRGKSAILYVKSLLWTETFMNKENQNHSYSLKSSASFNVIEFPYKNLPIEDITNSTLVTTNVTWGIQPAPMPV
human αVβ8, sequence (P26012 43-684 limits assumed): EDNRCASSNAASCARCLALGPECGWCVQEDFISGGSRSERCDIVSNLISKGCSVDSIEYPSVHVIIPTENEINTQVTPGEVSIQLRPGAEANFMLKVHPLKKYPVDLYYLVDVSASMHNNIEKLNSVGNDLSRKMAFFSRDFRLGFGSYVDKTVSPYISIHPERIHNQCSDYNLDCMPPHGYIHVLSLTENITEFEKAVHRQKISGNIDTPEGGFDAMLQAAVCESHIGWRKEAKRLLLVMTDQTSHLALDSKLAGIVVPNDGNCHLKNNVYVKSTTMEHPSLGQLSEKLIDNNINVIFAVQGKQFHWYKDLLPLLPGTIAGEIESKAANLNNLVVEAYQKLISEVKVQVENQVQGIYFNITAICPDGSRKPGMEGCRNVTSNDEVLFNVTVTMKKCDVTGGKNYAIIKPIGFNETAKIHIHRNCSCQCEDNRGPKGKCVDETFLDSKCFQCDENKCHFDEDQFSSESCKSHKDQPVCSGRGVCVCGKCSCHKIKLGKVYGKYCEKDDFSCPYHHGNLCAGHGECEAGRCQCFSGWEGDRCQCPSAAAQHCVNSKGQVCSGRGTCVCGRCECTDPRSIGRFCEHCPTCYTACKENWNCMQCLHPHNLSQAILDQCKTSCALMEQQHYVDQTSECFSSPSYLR
T1 sequence (P06756 31-992 limits assumed): as the sequence (P06756 31-992 limits assumed) above
T1 sequence (P18564 22-707 limits assumed): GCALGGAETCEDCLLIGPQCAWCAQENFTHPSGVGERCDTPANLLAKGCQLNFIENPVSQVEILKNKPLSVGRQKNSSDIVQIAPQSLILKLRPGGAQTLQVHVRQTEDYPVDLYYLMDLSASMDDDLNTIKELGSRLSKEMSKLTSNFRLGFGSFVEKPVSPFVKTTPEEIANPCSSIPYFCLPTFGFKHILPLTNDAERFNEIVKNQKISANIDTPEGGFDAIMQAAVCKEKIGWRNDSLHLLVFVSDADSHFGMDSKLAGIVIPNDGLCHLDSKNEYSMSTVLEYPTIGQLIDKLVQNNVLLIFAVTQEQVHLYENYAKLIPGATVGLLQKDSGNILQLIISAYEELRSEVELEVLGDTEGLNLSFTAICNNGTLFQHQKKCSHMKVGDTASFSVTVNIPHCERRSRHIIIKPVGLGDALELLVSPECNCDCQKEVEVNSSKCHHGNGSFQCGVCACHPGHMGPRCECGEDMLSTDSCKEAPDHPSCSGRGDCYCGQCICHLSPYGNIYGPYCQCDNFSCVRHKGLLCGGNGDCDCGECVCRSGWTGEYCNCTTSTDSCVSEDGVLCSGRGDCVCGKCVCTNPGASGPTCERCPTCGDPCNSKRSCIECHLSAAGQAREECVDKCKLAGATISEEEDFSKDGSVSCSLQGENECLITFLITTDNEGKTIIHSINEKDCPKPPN
human αVβ1, sequence (P06756 31-992 limits assumed): as the sequence (P06756 31-992 limits assumed) above
human αVβ1, sequence (P05556 21-728 limits assumed): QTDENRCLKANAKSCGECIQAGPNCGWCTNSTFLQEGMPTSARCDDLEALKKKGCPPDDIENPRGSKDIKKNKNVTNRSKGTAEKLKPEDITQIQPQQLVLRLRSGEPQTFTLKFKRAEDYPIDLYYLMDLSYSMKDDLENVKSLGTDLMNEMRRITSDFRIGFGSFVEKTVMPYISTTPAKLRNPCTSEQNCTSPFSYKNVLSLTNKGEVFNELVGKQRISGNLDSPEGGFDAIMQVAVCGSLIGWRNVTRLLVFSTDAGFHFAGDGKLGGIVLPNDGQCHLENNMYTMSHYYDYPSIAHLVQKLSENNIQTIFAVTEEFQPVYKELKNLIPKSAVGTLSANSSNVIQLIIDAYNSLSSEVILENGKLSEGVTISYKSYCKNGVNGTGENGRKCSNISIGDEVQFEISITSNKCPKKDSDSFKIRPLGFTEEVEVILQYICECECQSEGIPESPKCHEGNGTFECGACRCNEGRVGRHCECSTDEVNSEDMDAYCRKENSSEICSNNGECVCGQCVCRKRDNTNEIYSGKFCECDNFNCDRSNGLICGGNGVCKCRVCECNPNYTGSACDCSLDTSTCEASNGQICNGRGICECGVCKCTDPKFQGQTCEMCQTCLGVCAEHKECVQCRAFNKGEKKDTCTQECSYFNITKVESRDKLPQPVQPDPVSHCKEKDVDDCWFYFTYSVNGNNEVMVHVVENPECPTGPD
human αVβ5, sequence (P06756 31-992 limits assumed): as the sequence (P06756 31-992 limits assumed) above
human αVβ5, sequence (P18084 24-719 limits assumed): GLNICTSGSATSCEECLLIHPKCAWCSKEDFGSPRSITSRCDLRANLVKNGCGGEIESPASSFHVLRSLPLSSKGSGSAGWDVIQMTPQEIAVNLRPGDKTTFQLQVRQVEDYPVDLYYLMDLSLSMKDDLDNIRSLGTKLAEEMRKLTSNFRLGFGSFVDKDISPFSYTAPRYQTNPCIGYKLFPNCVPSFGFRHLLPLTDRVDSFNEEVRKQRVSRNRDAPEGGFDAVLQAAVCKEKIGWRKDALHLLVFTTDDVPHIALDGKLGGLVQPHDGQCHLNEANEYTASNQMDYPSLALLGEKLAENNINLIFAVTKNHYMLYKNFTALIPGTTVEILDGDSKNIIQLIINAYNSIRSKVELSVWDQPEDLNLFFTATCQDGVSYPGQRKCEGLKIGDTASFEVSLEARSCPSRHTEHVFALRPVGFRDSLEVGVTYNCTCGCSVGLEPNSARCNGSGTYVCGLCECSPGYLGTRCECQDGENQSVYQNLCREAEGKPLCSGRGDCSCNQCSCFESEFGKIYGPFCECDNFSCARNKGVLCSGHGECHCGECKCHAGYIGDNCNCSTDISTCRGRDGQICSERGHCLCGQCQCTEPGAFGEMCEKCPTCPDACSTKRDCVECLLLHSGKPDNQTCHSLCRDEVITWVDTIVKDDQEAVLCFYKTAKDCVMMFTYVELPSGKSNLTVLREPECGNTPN
human αVβ3, sequence (P06756 31-992 limits assumed): as the sequence (P06756 31-992 limits assumed) above
human αVβ3, sequence (P05106 27-718 limits assumed): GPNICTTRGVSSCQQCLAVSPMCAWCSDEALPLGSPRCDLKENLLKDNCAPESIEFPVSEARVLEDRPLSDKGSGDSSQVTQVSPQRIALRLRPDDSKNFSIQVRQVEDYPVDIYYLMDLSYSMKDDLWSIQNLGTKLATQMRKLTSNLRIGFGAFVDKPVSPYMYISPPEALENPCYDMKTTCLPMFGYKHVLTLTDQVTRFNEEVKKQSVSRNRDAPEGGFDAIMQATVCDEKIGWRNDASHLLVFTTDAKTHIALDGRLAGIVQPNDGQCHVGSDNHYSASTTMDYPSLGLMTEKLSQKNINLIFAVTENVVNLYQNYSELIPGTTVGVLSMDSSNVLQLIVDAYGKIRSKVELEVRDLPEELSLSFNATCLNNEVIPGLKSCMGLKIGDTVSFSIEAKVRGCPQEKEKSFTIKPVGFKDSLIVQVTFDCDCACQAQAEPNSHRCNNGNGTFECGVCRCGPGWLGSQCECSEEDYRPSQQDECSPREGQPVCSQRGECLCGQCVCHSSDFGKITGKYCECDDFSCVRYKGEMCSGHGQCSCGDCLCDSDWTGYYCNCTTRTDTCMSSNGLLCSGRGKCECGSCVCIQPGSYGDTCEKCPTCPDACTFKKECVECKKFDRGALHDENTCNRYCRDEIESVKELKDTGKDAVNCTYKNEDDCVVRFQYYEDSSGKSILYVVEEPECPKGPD

SMILES	IC50 (human αVβ3) [nM]	IC50 (human αVβ5) [nM]	IC50 (human αVβ6) [nM]	IC50 (human αVβ8) [nM]	IC50 (human αVβ1) [nM]
O=C(O)CC(c1cncc(C2OCCO2)c1)n1ncc2cc(OCCc3ccc4c(n3)NCCC4)ccc21 (stereo not shown) [Example 104, 3-(5-(1,3-Dioxolan-2-yl)pyridin-3-yl)-3(5-(2-(5,6,7,8-tetrahydro-1,8-naphthyridin-2-yl)ethoxy)-1H-indazol-1yl)propanoic acid]	2.61	0.28	12	1800	30
CCOc1ncc([C@H](CC(=O)O)n2ncc3cc(OCCc4ccc5c(n4)NCCC5)ccc32)cn1 [Example 107, (S)-3-(2-Ethoxypyrimidin-5-yl)-3-(5-(2-(5,6,7,8-tetrahydro-1,8-naphthyridin-2-yl)ethoxy)-1H-indazol-1-yl)propanoic acid, TFA]	2.4	0.32	15	300	64
COc1ncc([C@H](CC(=O)O)n2cc3ccc(CCc4ccc5c(n4)NCCC5)cc3n2)cn1 [Example 118, (5)-3-(2-Methoxypyrimidin-5-yl)-3-(6-(2-(5,6,7,8-tetrahydro-1,8-naphthyridin-2-yl)ethyl)-2H-indazol-2-yl)propanoic acid]	2	1.1	12	3100	4300
O=C(O)CC(c1cncc(-c2cnco2)c1)n1ncc2cc(OCCc3ccc4c(n3)NCCC4)ccc21 (stereo not shown) [Example 121, 3-(5-(Oxazol-5-yl)pyridin-3-yl)-3-(5-(2-(5,6,7,8-tetrahydro-1,8-naphthyridin-2-yl)ethoxy)-1H-indazol-1-yl)propanoic acid]	3.1	0.46	8.8	2600	71

Stronger by IC50 (human αVβ3), values ahead:

IC50 (human αVβ3) [nM]	IC50 (human αVβ5) [nM]	IC50 (human αVβ6) [nM]	IC50 (human αVβ8) [nM]	IC50 (human αVβ1) [nM]	SMILES
1.6	0.46	19	2200	63	Cn1ncc2cc(C(CC(=O)O)n3ncc4cc(OCCc5ccc6c(n5)NCCC6)ccc43)cnc21 (stereo not shown) [Example 117, 3-(1-Methyl-1H-pyrazolo[3,4-b]pyridin5-yl)-3-(5-(2-(5,6,7,8-tetrahydro-1,8-naphthyridin-2-yl)ethoxy)-1H-indazol-1-yl)propanoic acid, 2 TFA]
1.5	0.2	16	7500	200	Cn1cc2cc(C(CC(=O)O)n3ncc4cc(OCCc5ccc6c(n5)NCCC6)ccc43)cnc2n1 (stereo not shown) [Example 120, 3-(2-Methyl-2H-pyrazolo[3,4-b]pyridin-5-yl)-3-(5-(2-(5,6,7,8-tetrahydro-1,8-naphthyridin-2-yl)ethoxy)-1H-indazol-1-yl)propanoic acid, 2 TFA]
1.4	0.6	10.6	4400	98	O=C(O)CC(c1cnc(N2CCC2)nc1)n1ncc2cc(OCCc3ccc4c(n3)NCCC4)ccc21 (stereo not shown) [Example 119, 3-(2-(Azetidin-1-yl)pyrimidin-5-yl)-3-(5-(2-(5,6,7,8-tetrahydro-1,8-naphthyridin-2-yl)ethoxy)-1H-indazol-1-yl)propanoic acid, 2 TFA]
1.3	2.6	23	3000	78	O=C(O)CC(c1cnc2[nH]ncc2c1)n1ncc2cc(OCCc3ccc4c(n3)NCCC4)ccc21 (stereo not shown) [Example 106, 3-(1H-Pyrazolo[3,4-b]pyridin-5-yl)-3-(5-(2-(5,6,7,8-tetrahydro-1,8-naphthyridin-2-yl)ethoxy)-1H-indazol-1-yl)propanoic acid, 2 TFA]
